Test system: endotoxin
Test: administration of E5564 to humans / endotoxin challenge studies
Format: in vivo
Source text: We have discovered that administration of E5564 to humans in a single bolus or by intermittent infusion is effective at preventing the clinical effects of endotoxemia. […] Thus, we have discovered drug administration regimens involving single bolus or intermittent infusion, to prevent or treat endotoxemia and related conditions and disorders (e.g., sepsis) in humans.

Structure (SMILES): CCCCCC/C=C\CCCCCCCCC[C@@H](O)N[C@H]1[C@H](OCC2O[C@H](OP(=O)(O)O)[C@H](NC(=O)CC(=O)CCCCCCCCCCC)[C@@H](OCCCCCCCCCC)[C@@H]2O)O[C@H](COC)[C@@H](OP(=O)(O)O)[C@@H]1OCC[C@@H](CCCCCCC)OC (stereo partly drawn) [Compound E5564, α-D-Glucopyranose, 3-O-decyl-2-deoxy-6-O-[2-deoxy-3-O-[(3R)-3-methoxydecyl)-6-O-methyl-2-[[(11Z)-1-oxo-11-octadecenyl)amino]-4-O-phosphono-β-D-glucopyranosyl]-2-[(1,3-dioxotetradecyl)amino]-,1-(dihydrogen phosphate)]
- activity of the drug after cessation of administration (doses higher than the minimum dose found to be effective in endotoxin challenge studies): prolonged activity
- preventing the clinical effects of endotoxemia (humans, single bolus or intermittent infusion): effective
- activity of the drug upon cessation of administration (previous studies): decreases rapidly
- clearance from circulation upon cessation of administration (previous studies): not cleared from circulation
